What was measured:
[1] = target: T1, Nitric oxide synthase, inducible (Mus musculus, UniProt P29477); assay: (§1) Inhibition of inducible nitric oxide synthase (iNOS) in mice
T1 sequence (P29477 whole entry): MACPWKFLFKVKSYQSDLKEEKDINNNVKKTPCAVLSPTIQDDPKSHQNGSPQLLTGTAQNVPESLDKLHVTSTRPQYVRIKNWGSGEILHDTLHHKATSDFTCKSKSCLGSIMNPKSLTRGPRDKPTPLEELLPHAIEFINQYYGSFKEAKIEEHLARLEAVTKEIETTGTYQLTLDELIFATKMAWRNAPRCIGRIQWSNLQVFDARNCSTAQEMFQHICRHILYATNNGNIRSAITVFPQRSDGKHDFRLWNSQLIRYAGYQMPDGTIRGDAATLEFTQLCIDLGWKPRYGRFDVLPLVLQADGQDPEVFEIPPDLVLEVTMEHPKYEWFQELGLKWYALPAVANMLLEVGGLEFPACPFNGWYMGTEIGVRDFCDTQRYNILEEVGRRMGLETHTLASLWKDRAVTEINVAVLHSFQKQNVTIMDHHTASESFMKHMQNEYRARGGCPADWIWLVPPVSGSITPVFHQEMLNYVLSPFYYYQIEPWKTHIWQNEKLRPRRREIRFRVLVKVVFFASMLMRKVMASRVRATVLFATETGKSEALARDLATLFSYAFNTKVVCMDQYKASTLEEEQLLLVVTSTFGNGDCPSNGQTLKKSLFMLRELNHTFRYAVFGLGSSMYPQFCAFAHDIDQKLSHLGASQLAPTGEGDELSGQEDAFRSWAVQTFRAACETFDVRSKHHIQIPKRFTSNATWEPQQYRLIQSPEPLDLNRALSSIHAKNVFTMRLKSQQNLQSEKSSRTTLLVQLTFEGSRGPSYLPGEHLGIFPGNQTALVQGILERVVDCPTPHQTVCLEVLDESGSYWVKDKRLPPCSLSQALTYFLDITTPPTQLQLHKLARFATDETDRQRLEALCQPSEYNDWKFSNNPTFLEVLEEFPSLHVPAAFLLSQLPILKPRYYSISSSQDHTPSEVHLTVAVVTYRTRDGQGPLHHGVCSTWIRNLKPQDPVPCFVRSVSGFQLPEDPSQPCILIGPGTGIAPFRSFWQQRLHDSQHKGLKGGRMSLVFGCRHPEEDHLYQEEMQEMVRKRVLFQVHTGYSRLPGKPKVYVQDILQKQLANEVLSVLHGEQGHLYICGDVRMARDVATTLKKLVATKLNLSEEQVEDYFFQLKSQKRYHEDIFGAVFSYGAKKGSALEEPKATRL

Nitric oxide synthase 1 = Nitric oxide synthase 1 (Mus musculus, UniProt Q9Z0J4); assay: (§2) Inhibition of neuronal nitric oxide synthase (nNOS) in mice
Mus musculus = organism: Mus musculus; assay: Selectivity ratio of IC50 of nNOS to IC50 of iNOS
[2] = target: T2, Nitric oxide synthase, inducible (Mus musculus) (UniProt P29477); assay: as §1; conditions: concentration not given here
T2 sequence (whole entry): T1 sequence (P29477 whole entry)

[3] = target: Nitric oxide synthase 1 (Mus musculus) (UniProt Q9Z0J4); assay: as §2; conditions: concentration not given here
Chain of Nitric oxide synthase 1 (Mus musculus) (Q9Z0J4 whole entry): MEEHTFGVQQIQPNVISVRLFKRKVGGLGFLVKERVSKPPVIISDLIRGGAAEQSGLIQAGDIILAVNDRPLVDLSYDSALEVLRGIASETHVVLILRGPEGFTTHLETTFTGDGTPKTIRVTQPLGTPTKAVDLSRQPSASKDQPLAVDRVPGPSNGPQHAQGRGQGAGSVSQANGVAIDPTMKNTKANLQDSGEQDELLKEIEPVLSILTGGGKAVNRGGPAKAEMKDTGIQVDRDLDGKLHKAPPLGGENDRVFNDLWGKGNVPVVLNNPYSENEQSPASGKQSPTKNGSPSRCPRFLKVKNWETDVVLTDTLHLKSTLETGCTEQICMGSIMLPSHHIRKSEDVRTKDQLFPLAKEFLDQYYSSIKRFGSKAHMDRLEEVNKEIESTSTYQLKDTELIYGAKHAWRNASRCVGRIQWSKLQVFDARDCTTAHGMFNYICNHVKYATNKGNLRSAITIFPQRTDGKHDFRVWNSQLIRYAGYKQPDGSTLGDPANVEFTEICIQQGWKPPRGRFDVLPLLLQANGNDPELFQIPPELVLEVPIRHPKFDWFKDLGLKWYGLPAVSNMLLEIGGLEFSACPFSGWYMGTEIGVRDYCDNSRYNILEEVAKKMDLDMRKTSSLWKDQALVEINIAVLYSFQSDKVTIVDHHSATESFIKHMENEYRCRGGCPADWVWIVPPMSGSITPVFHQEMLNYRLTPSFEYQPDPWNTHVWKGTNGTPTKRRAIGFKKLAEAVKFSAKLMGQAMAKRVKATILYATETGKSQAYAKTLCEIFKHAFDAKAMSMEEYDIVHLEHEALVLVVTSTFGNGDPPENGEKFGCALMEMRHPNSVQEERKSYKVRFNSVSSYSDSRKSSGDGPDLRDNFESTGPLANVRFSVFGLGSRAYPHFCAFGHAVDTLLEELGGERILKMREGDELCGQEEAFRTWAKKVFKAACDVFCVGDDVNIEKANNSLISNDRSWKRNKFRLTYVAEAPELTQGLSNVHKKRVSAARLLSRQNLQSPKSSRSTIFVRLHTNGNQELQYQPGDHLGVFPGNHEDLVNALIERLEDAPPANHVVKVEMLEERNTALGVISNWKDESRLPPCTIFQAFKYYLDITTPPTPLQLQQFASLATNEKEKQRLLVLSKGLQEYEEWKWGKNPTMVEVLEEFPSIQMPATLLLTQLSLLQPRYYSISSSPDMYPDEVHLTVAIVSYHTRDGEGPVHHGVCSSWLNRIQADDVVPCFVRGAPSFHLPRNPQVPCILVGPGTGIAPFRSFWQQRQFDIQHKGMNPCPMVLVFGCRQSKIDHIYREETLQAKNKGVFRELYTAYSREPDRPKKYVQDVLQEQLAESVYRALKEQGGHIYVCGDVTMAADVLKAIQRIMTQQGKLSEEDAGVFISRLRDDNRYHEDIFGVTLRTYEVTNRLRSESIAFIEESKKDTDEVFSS

Chain of Nitric oxide synthase 1 (Q9Z0J4 whole entry): as above

| Compound | IC50 [1] | IC50 (Nitric oxide synthase 1) | Selectivity (Mus musculus) | inhibition [2] | inhibition [3] |
| --- | --- | --- | --- | --- | --- |
| CC[C@@H]1N=C(N)O[C@H]1CC | 56 nM | 2500 nM | 45 | – | – |
| C[C@@H]1N=C(N)O[C@@H]1C | 150 nM | 1600 nM | 11 | – | – |
| NC1=NCC(CBr)O1 (stereo not given) | 500 nM | 400 nM | 0.8 | – | – |
| CCCCC[C@@H]1N=C(N)O[C@@H]1C | 230 nM | 3600 nM | 16 | – | – |
| CCC1CN=C(N)O1 (stereo not given) | 280 nM | 1800 nM | 6.4 | – | – |
| CC[C@@H]1N=C(N)O[C@H]1C | 170 nM | 2300 nM | 14 | – | – |
| CNC(=N)NCCC[C@H](N)C(=O)O [TILARGININE] | – | 4300 nM | – | – | – |
| CCC1COC(N)=N1 (stereo not given) | 1600 nM | 2800 nM | 1.8 | – | – |
| NC1=NC(c2ccccc2)CO1 (stereo not given) | – | – | – | 28% | 18% |
| CCC[C@@H]1N=C(N)O[C@H]1CCC | 2500 nM | 73000 nM | 29 | – | – |
| CC[C@@H]1N=C(N)O[C@@H]1C | 120 nM | 680 nM | 5.7 | – | – |
| N=C(NCCC[C@H](N)C(=O)O)N[N+](=O)[O-] [NITROARGININE] | 80000 nM | 500 nM | 0.0063 | – | – |
| CC1CN=C(N)O1 (stereo not given) | 74 nM | 1400 nM | 19 | – | – |
| CC[C@@H]1OC(N)=N[C@H]1C | 120 nM | 1700 nM | 14 | – | – |
| CCCCC[C@@H]1N=C(N)O[C@H]1C | 500 nM | 790 nM | 1.6 | – | – |
| CCC[C@@H]1N=C(N)O[C@@H]1C | 41 nM | 920 nM | 22 | – | – |
| CC[C@@H]1N=C(N)O[C@@H]1CC | 130 nM | 1200 nM | – | – | – |
| C[C@H]1CC(=N)N[C@@H]2[C@H](Cl)[C@@H]21 | 3 nM | 15 nM | – | – | – |
| CC[C@H]1OC(N)=N[C@H]1C | 160 nM | 850 nM | 5.3 | – | – |
| NC1=NCCO1 | 7900 nM | 34000 nM | 4.3 | – | – |
| CC1COC(N)=N1 (stereo not given) | 1500 nM | 9800 nM | 6.5 | – | – |
| CCC[C@@H]1N=C(N)O[C@@H]1CCC | 6800 nM | 57000 nM | 8.4 | – | – |
| CCC[C@@H]1N=C(N)O[C@H]1C | 120 nM | 570 nM | 4.8 | – | – |
| C[C@H]1CC(N)=N[C@@H]2[C@H](Cl)[C@@H]21 | – | – | 5 | – | – |

From ChEMBL document CHEMBL1139446, “4,5-Disubstituted-1,3-oxazolidin-2-imine derivatives: a new class of orally bioavailable nitric oxide synthase inhibitor” (Bioorg Med Chem Lett, 2004)
